≈ marks a conversion by molar mass, not a printed value. Where “and” joins values, the source holds several entries; their conditions need not be identical. Identical values can stand only once.
Key:
Type in all cases: functional
Bacillus subtilis = assay: Antibacterial activity against Bacillus subtilis assessed as inhibition of bacterial growth incubated for 24 hrs by microbroth dilution method
Bacillus cereus = assay: Antibacterial activity against Bacillus cereus assessed as inhibition of bacterial growth incubated for 24 hrs by microbroth dilution method
Mycolicibacterium phlei = assay: Antibacterial activity against Mycobacterium phlei assessed as inhibition of bacterial growth incubated for 24 hrs by microbroth dilution method
Proteus sp. = assay: Antibacterial activity against Proteus sp. assessed as inhibition of bacterial growth incubated for 24 hrs by microbroth dilution method
Vibrio parahaemolyticus = assay: Antibacterial activity against Vibrio parahaemolyticus assessed as inhibition of bacterial growth incubated for 24 hrs by microbroth dilution method
Staphylococcus aureus = assay: Antibacterial activity against methicillin-resistant Staphylococcus aureus assessed as inhibition of bacterial growth incubated for 24 hrs by microbroth dilution method
Candida albicans = assay: Antifungal activity against monilia albicans assessed as inhibition of fungal growth incubated for 24 hrs by microbroth dilution method
[1] = Bacillus subtilis, read-out: MIC
[2] = Mycolicibacterium phlei, read-out: MIC
[3] = Proteus sp. (in: enterobacteria), read-out: MIC

Compound	MIC (Bacillus subtilis; [1])	MIC (Bacillus cereus; Bacillus cereus, read-out: MIC)	MIC (Mycolicibacterium phlei; [2])	MIC (Proteus sp.; [3])	MIC (Vibrio parahaemolyticus)	MIC (Staphylococcus aureus)	MIC (Candida albicans)	MIC (Bacillus subtilis)	MIC (Bacillus cereus)	MIC (Mycolicibacterium phlei)	MIC (Proteus sp.)
O=c1c(-c2ccc(Oc3c(O)cc(O)c4c(=O)c(-c5ccc(O)cc5)coc34)cc2)coc2c(Cl)c(O)ccc12	0.4 µM (≈ 0.223 µg/mL)	> 50 µM	> 50 µM	> 50 µM	> 50 µM	> 50 µM	> 50 µM	–	–	–	–
O=c1c(-c2ccc(O)c(-c3c(O)ccc4c(=O)c(-c5ccc(O)cc5)coc34)c2)coc2cc(O)ccc12	6.2 µM (≈ 3.14 µg/mL)	3.1 µM (≈ 1.57 µg/mL)	6.2 µM (≈ 3.14 µg/mL)	50 µM (≈ 25.3 µg/mL)	12 µM (≈ 6.08 µg/mL)	> 50 µM	> 50 µM	–	–	–	–
NYSTATIN	–	–	–	–	–	–	25 µM	–	–	–	–
O=c1c(-c2ccc(O)cc2)coc2c(-c3cc(-c4coc5cc(O)cc(O)c5c4=O)ccc3O)c(O)ccc12	–	6.2 µM (≈ 3.24 µg/mL)	–	50 µM (≈ 26.1 µg/mL)	50 µM (≈ 26.1 µg/mL)	–	> 50 µM	25 µM and 12 µM	12 µM (≈ 6.27 µg/mL)	12 µM and 25 µM	25 µM (≈ 13.1 µg/mL)
O=c1c(-c2ccc(O)c(-c3cc(-c4coc5c(Cl)c(O)cc(O)c5c4=O)ccc3O)c2)coc2cc(O)cc(O)c12	> 50 µM	> 50 µM	> 50 µM	> 50 µM	1.6 µM (≈ 0.917 µg/mL)	> 50 µM	1.6 µM (≈ 0.917 µg/mL)	–	–	–	–
O=c1c(-c2ccc(O)cc2)coc2cc(O)ccc12 [DAIDZEIN]	> 50 µM	> 50 µM	> 50 µM	> 50 µM	> 50 µM	> 50 µM	> 50 µM	–	–	–	–
O=c1c(-c2ccc(O)c(-c3c(O)cc(O)c4c(=O)c(-c5ccc(O)cc5)coc34)c2)coc2cc(O)ccc12	6.2 µM (≈ 3.24 µg/mL)	–	–	12 µM (≈ 6.27 µg/mL)	–	> 50 µM	> 50 µM	12 µM (≈ 6.27 µg/mL)	–	–	–
O=c1c(-c2ccc(O)c(Oc3ccc(-c4coc5c(Cl)c(O)cc(O)c5c4=O)cc3)c2)coc2cc(O)ccc12	1.6 µM (≈ 0.891 µg/mL)	> 50 µM	> 50 µM	> 50 µM	3.1 µM (≈ 1.73 µg/mL)	> 50 µM	1.6 µM (≈ 0.891 µg/mL)	–	–	–	–
O=c1c(-c2ccc(Oc3c(O)cc(O)c4c(=O)c(-c5ccc(O)cc5)coc34)cc2)coc2c(Cl)c(O)cc(O)c12	0.8 µM (≈ 0.458 µg/mL)	> 50 µM	> 50 µM	> 50 µM	3.1 µM (≈ 1.78 µg/mL)	> 50 µM	1.6 µM (≈ 0.917 µg/mL)	–	–	–	–
O=C(O)c1cn(C2CC2)c2cc(N3CCNCC3)c(F)cc2c1=O [CIPROFLOXACIN]	< 0.4 µM	< 0.4 µM	< 0.4 µM	0.8 µM (≈ 0.265 µg/mL)	< 0.4 µM	> 50 µM	–	–	–	–	–
O=c1c(-c2ccc(O)c(-c3c(O)cc(O)c4c(=O)c(-c5ccc(O)cc5)coc34)c2)coc2cc(O)cc(O)c12	0.8 µM (≈ 0.431 µg/mL)	3.1 µM (≈ 1.67 µg/mL)	0.8 µM (≈ 0.431 µg/mL)	0.8 µM (≈ 0.431 µg/mL)	0.8 µM (≈ 0.431 µg/mL)	0.8 µM (≈ 0.431 µg/mL)	> 50 µM	–	–	–	–
COc1cc(-c2coc3cc(O)c(-c4cc(-c5coc6cc(O)ccc6c5=O)ccc4O)cc3c2=O)ccc1O	12 µM (≈ 6.44 µg/mL)	12 µM (≈ 6.44 µg/mL)	12 µM (≈ 6.44 µg/mL)	12 µM (≈ 6.44 µg/mL)	50 µM (≈ 26.8 µg/mL)	> 50 µM	> 50 µM	–	–	–	–
COc1c(O)ccc2c(=O)c(-c3ccc(O)c(-c4cc(-c5coc6cc(O)ccc6c5=O)ccc4O)c3)coc12	25 µM (≈ 13.4 µg/mL)	25 µM (≈ 13.4 µg/mL)	25 µM (≈ 13.4 µg/mL)	> 50 µM	> 50 µM	> 50 µM	> 50 µM	–	–	–	–
O=c1c(-c2ccc(O)cc2)coc2cc(O)cc(O)c12 [GENISTEIN]	> 50 µM	> 50 µM	> 50 µM	> 50 µM	> 50 µM	> 50 µM	> 50 µM	–	–	–	–
O=c1c(-c2ccc(O)c(Oc3ccc(-c4coc5c(Cl)c(O)ccc5c4=O)cc3)c2)coc2cc(O)ccc12	0.8 µM (≈ 0.433 µg/mL)	> 50 µM	> 50 µM	> 50 µM	0.8 µM (≈ 0.433 µg/mL)	> 50 µM	1.6 µM (≈ 0.865 µg/mL)	–	–	–	–
